This note sets out measurements from patent US8633314B2, “Forms of a multicyclic compound” (Cephalon, Inc., priority 2009, dated 2014).

Type in all cases: physicochemical
A short description of series [1]: Solid state stress stability (storage; XRPD and stability-indicating HPLC). As to the method:
Typically 10 μL aliquots of the sample solutions were diluted to 1 mL with acetonitrile and the assay concentrations were determined from an average of duplicate injections using the following HPLC method. The purity and impurity analyses are done using conventional HPLC.
Crystallization studies were performed to investigate polymorphism in 48 different solvents. Solvents were selected on the basis of acceptability (ICH Class 3 and 2) and to give a range of dielectric constants, dipole moments and functional groups. Two starting materials were selected: Form A0 and Lot 7 (a mixture of Form A0, Form HC0 and Form HD0). When possible, full characterization was performed on the new forms that were generated during the polymorphism screening of Compound I. This characterization consisted of: XRPD, thermal analysis, DVS, storage at 40° C./75% RH and purity.
Stress stability studies were performed to get a timely impression of the influence of temperature and humidity on form stability. A stability-indicating HPLC assay method was developed for quantitation of Compound I and its major degradation product, 7-methoxy-1,2,3,11-tetrahydro-5,11-diaza-benzo[a]trindene-4,6-dione, previously referred to as “Compound E”.

Series [2] in a line: Dynamic vapor sorption (DVS). As to the method:
Gravimetric vapor sorption experiments were carried out using the DVS-HT instrument (Surface Measurement Systems, London, UK). This instrument measures the uptake and loss of vapor gravimetrically using a recording ultra-microbalance with a mass resolution of ±0.1 μg. The vapor partial pressure (±1.0%) around the sample was controlled by mixing saturated and dry carrier gas streams using electronic mass flow controllers. The desired temperature was maintained at ±0.1° C.
The samples (10-25 mg) were placed into the DVS-HT instrument at the desired temperature. Two types of dynamic vapor sorption experiments were performed: • 1. The sample was initially dried in stream of dry air (<0.1% relative humidity (RH)) for 20 hours to establish a dry mass and exposed to two 0-90% RH cycles (in 10% RH increments). • 2. The sample was exposed at 90% RH for 20 hours and exposed to two 90-0% RH cycles (in 10% RH increments). Infrared Spectrometry (FTIR)

Series [3] can be described thus: Well plate crystallization with added water (forms found). As to the method:
B. Plates containing 10 volumes of Compound I (40 mg of Lot 7 in 400 μL) were heated from 20° C. to an initial temperature of 80° C. at a rate of 4.8° C./min and after 30 minutes, cooled at a slow (0.28° C./min), or fast (10° C./min) rate to a final temperature of 5° C. and kept at that temperature for 18 hours. The crystallization experiments were carried out in glass vial (4 mL) well plates, and solid material was isolated by filtration. The solid was dried at 57° C. for 10 hours.

Series [4] can be described thus: Relative stability of slurries in water (XRPD of residual solid). To be noted: slurried overnight in 2 ml water, all conditions investigated. As to the method: Two ml of water was added to a few milligrams of Compound I forms. The samples were slurried overnight. A small sample of solid was removed and analyzed by XRPD. […] The hydrate form appears to be more thermodynamically stable than Form A0 between 5 and 45° C.

Series [5] can be described thus: Mechanical stress: grinding by mortar and pestle, milling by Wig-L-Bug. Particulars: three five-minute grinding intervals. As to the method:
Approximately 100 mg of Compound I was ground at different times ranging from 5 to 27 min in an agate mortar. Samples were removed for XRPD and thermal analysis. The grinding process was stopped every 5 minutes to scrape and remix powder cakes at the curvature end of the jars to ensure homogenous grinding.
A Wig-l-Bug® (Piketech, USA) was used to grind Compound I Form A0, HA0 and HB0 (mixture of Forms HC0 and HD0). Each sample (50 mg) was ground for periods of 5 and 10 minutes or until no change was observed. Each milling was carried out in a 2.82 cm^3 container using 0.9 g stainless steel ball ([…]). The vial is swung through a 6.5° arc at 3200 rpm, causing the ball to strike the end of the vial at over 100 Hz.

The nature of series [6]: Variable temperature X-ray powder diffraction (VT-XRPD). Particulars: 150° C. to 200° C., after the dehydration. As to the method: Variable temperature studies were performed under a nitrogen atmosphere with an Anton Paar TTK450 temperature chamber under computer control through an Anton Paar TCU100 temperature control unit. Two measurement schemes were used, restricted and continuous. In the restricted mode, measurements were made, only after the TK450 chamber reached the requested temperature. In the continuous mode, the sample was heated at 10° C./minute and fast scans were measured as the temperature changed. After the requested temperature was reached, the sample was cooled at 30 or 35° C./minute and a slower scan measured 25° C.

[7] abbreviates: Regular DVS (0 to 90% RH), listed as HC0.

Take `COc1cccc2[nH]c3c4c(c5c(c3c12)C(=O)N(CN1CCN(C)CC1)C5=O)CCC4` [Compound I, 4,5,6,7-tetrahydro-11-methoxy-2-[(4-methyl-1-piperazinyl)methyl]-1H-cyclopenta[a]pyrrolo[3,4-c]carbazole-1,3(2H)-dione]: the chemical degradation result is reported as “not observed” in series [1] (40° C. and 75% RH); “observed” in series [1] (exposed to 110° C.).
With `COc1cccc2[nH]c3c4c(c5c(c3c12)C(=O)N(CN1CCN(C)CC1)C5=O)CCC4` [Form HA0, 4,5,6,7-tetrahydro-11-methoxy-2-[(4-methyl-1-piperazinyl)methyl]-1H-cyclopenta[a]pyrrolo[3,4-c]carbazole-1,3(2H)-dione], the “XRPD post DVS analysis” value in series [2] is “No significant changes”. In addition, the “DVS % increase in mass at 90% RH” value in series [2] is on record as 1.5%. Further, the “weight decrease in DVS isotherm” value in series [2] (between 20-30% RH) came out at 1.25%. Also, the “second change in mass” value in series [2] (second desorption phase) was around 0.4%. For the same compound, in series [1] (40° C./75% RH), the “Chemical Stability (HPLC (post 4 weeks at 40° C./75% RH (Area %)))” value is 99.0 Area %. In addition, the “HPLC % Compound I” value is 99.6% Compound I, in series [1] (40° C./75% RH, 0 days); 99.5% Compound I, in series [1] (40° C./75% RH, 7 days); 99.0% Compound I, in series [1] (40° C./75% RH, 26 days). For the same compound, the “XRPD (form found)” value is recorded as “HA0” in series [1] (40° C./75% RH, 0 days); “HA0” in series [1] (40° C./75% RH, 7 days); “HA0” in series [1] (40° C./75% RH, 26 days). Moreover, the “form produced on crystallization from aqueous media” value in series [3] (aqueous media) was “a mixture of Forms HC0+HD0 is produced”. In addition, the “Forms Found” value in series [3] (solvent not given, 0.175 volumes of water) is on record as “HC0, HD0”. For the same compound, the “form after slurrying in water” value in series [4] is “converted to the hydrate forms (mixture of Forms HC0 and HD0)”.
On to `COc1cccc2[nH]c3c4c(c5c(c3c12)C(=O)N(CN1CCN(C)CC1)C5=O)CCC4` [Form HC0, 4,5,6,7-tetrahydro-11-methoxy-2-[(4-methyl-1-piperazinyl)methyl]-1H-cyclopenta[a]pyrrolo[3,4-c]carbazole-1,3(2H)-dione], for which the “DVS % increase in mass at 90% RH” value in series [2] is on record as 0.44%. Further, in series [2] (Irregular DVS (90 to 0% RH)), the “At 75% RH uptake” value is on record as 0.3%, the “Total uptake at 90% RH” value worked out at 0.4% and the “changes by XRPD re-analysis after DVS” value is “No significant changes”. Also, in series [2] (Regular DVS (0 to 90% RH)), the “Total uptake at 90% RH” value is listed as 0.4% and the “changes by XRPD re-analysis after DVS” value is on record as “No significant changes”. Further, in series [2] (setting [7]), the “At 75% RH uptake” value stood at 0.3% and the “Total uptake at 90% RH” value turned out to be 0.4%. In series [1] (40° C./75% RH), the “Chemical Stability (HPLC (post 4 weeks at 40° C./75% RH (Area %)))” value turned out to be 99.0 Area %. Besides, in series [1] (40° C./75% RH, 0 days), the “HPLC % Compound I” value is 92.6% Compound I, and the “XRPD (form found)” value is “HC0”. In series [1] (40° C./75% RH, 28 days), the “HPLC % Compound I” value was 93.3% Compound I,, the HPLC % others worked out at 0.2% others and the “XRPD (form found)” value is reported as “HC0”.
As to `COc1cccc2[nH]c3c4c(c5c(c3c12)C(=O)N(CN1CCN(C)CC1)C5=O)CCC4` [Form S40], the “HPLC % Compound I” value in series [1] (40° C./75% RH, 9 days) is listed as 99.4% Compound I,; in series [1] (40° C./75% RH, 17 days), 99.4% Compound I,; in series [1] (40° C./75% RH, 31 days) it was 99.4% Compound I,; in series [1] (40° C./75% RH, 62 days), 99.2% Compound I,. Besides, the “XRPD (form found)” value in series [1] (40° C./75% RH, 9 days) is on record as “transformed into monohydrate Form HC0”; in series [1] (40° C./75% RH, 9 days, listed as S40) it was “HC0”; in series [1] (40° C./75% RH, 17 days), “HC0”; in series [1] (40° C./75% RH, 31 days) it was “HC0”; in series [1] (40° C./75% RH, 62 days) it was “remained in this state”; in series [1] (40° C./75% RH, 62 days, listed as S40), “HC0”.
On to `COc1cccc2[nH]c3c4c(c5c(c3c12)C(=O)N(CN1CCN(C)CC1)C5=O)CCC4` [Form HB0], for which the “factor of reduction in intensity of XRPD peak at 7.6° (2θ)” value in series [5] was “approximately 30”.
For `COc1cccc2[nH]c3c4c(c5c(c3c12)C(=O)N(CN1CCN(C)CC1)C5=O)CCC4` [Form B0, 4,5,6,7-tetrahydro-11-methoxy-2-[(4-methyl-1-piperazinyl)methyl]-1H-cyclopenta[a]pyrrolo[3,4-c]carbazole-1,3(2H)-dione], the “solid-solid transformation (VT-XRPD)” value in series [6] is “no solid-solid transformation takes place”.
